Values joined by “and” are separate entries in the source; they are usually repeats but may differ in a detail not shown here. Identical values can stand only once. “Also recorded” adds a separate entry of the source. Like-named read-outs stand apart in the source and are kept apart here.
Experiments:
MCF-7 cells [1] = experiment: Western blot of apoptosis-related proteins; assay type: cell-based, human; settings: MCF-7, 3, 6 and 12 µM, 24 h, GAPDH internal control
Method: To further explore the molecular mechanism of compound-8f-induced apoptosis in MCF-7 cells, the expression levels of the related apoptotic proteins Bcl-2, Bax, P53, caspase-3, caspase-9, cleaved caspase-3, cleaved caspase-9 and cytochrome c under treatment of compound 8f were carried out. MCF-7 cells were co-cultured with compound 8f at the gradient concentrations of 3, 6 and 12 µM for 24 h, and the related apoptotic proteins expression levels were tested by means of Western blotting. The GAPDH expression level was used as an internal control group. […] Meanwhile, the cleavage forms of the caspase proteins were evaluated (Figure 10). Compound 8f could also activated the expression levels of both cleaved caspase-3 and cleaved caspase-9 in a dose-dependent manner.
After treatment with compound 8f (0, 3, 6 and 12 µM), MCF-7 cells were harvested and lysed in RIPA buffer and boiled for 10 min at 100 °C. Equal amount of protein ([…]) were separated on a 10% SDS-PAGE gel and transferred to nitrocellulose membranes. The membranes were blocked with 5% BSA and probed with a 1:1000 dilution of primary antibody against Cl-caspase-3 (Cell Singaling Technology, Inc., Danvers, MA, USA), Cl-caspase-9 (Cell Singaling Technology Inc), P53 (Cell Singaling Technology, Inc; Danvers, MA, USA), Bcl-2 (Santa Cruz Biotechnology, Inc; Santa Cruz, CA, USA), Cytochrome c (Proteintech Group, Inc; Rosemont, IL, USA) and Bax (Proteintech Group, Inc; Rosemont, IL, USA). Then, the membranes were incubated with a 1:5000 dilution of horseradish peroxidase-conjugated secondary antibody for 2 h. Positive bands were visualized on a X-ray film using an enhanced chemiluminescence system (Kodak).

MCF-7 cells [2] = experiment: AO/EB staining, fluorescence microscope; assay type: cell-based, human; settings: MCF-7, 0, 3, 6 and 12 μM, 24 h
Method: Firstly, the Acridine Orange/Ethidium Bromide (AO/EB) staining of MCF-7 cells treated with compound 8f was observed under a fluorescence microscope. A large number of normal cells in the control group were stained green and their nuclei were intact.
The MCF-7 cells in the logarithmic growth phase were cultured into 6-well plates (5 × 10^4 cells/mL). The cells incubated for overnight at 37 °C in an atmosphere of 5% CO2. Then the MCF-7 cells were treated with compound 8f (0, 3, 6 and 12 μM) for 24 h. The cover slip with monolayer MCF-7 cells was inverted on the glass slide with 20 μL of AO/BE stain (100 μg/mL). The fluorescence intensity was read using a fluorescence microscope (Zeiss, Oberserve A1, Oberkochen, Germany).

MCF-7 cells [3] = experiment: ROS level assay, H2DCFDA, flow cytometry; assay type: cell-based, human; settings: MCF-7, 12 μM, 24 h; control group 2.61%
Method: In the past years, many studies reported that intracellular amounts of reactive oxygen species (ROS) play an important role in some kinds of biological processes in tumor cells. […] Therefore, we explored if ROS stimulated by compound 8f induced apoptosis in MCF-7 cells. Cells were treated with compound 8f by gradient concentration (0, 3, 6 and 12 μM) for 24 h and then using H2DCFDA staining analysis by flow cytometry.
MCF-7 cells were cultured into 12-well plate at a concentration of 1 × 10^6 cells/well for 24 h of the RPMI-1640 medium with 10% FBS. Then, cells were co-cultured with compound 8f (0, 3, 6 and 12 µM) for 24 h. Then, the MCF-7 cells were stained with 5 µM H2DCFDA solution (400 µL/well) at room temperature in the dark for 30 min. The cells were harvested and washed with PBS twice according to the manufacturer’s instructions (Thermo Fisher Scientific, Waltham, MA, USA). The results were obtained by flow cytometry.

MCF-7 cells [4] = experiment: Annexin V-FITC/PI apoptosis analysis by flow cytometry; assay type: cell-based, human; settings: 24 h, control 10.54%
Method: In order to confirm whether tumor cell apoptosis was induced by compound 8f in tumor cells, the MCF-7 cells were stained in sequence with Annexin V-FITC (AV) and propidium iodide (PI). MCF-7 cells deal with compound 8f by gradient concentration (0, 3, 6 and 12 μM) for 24 h, and the rates of apoptotic cells were detected by flow cytometry.
Apoptosis was determined by staining cells with an Annexin VFITC/PI detection kit (BD Biosciences, San Jose, CA, USA). Briefly, MCF-7 cells were seeded on six-well plates (6 × 10^4 cells/mL) and incubated with compound 8f (0, 3, 6 and 12 μM) for 24 h. Cells were washed twice with cold PBS and resuspended in 500 μL of 1 × binding buffer, and then 10 μL of Annexin V-FITC and 5 μL of PI were applied to stain the cells for 15 min at room temperature in the dark. The status of stained cells was analyzed using a flow cytometer (BD, FACSCalibur, San Jose, CA, USA).

[5] = tested on: normal human gastric epithelial cells (GES-1); experiment: MTT cytotoxicity assay, GES-1 normal cells; assay type: cell-based; settings: GES1, MTT, 48 h, normal cells, means ± SD of three experiments, “-” not active, read-out: IC50 (μM) GES-1
MCF-7 cells [6] = experiment: Mitochondrial membrane potential (MMP) assay, JC-1, flow cytometry; assay type: cell-based, human; settings: 24 h
Method: Mitochondria dysfunction has been proven to be an important role in inducing apoptosis in tumor cells. The loss of mitochondrial membrane potential (MMP) has been considered to be an early manifestation of mitochondrial dysfunction in apoptotic process. Thus, we tried to explore the contribution of mitochondria in compound-8f-induced apoptosis in MCF-7 cells. JC-1 cationic dye is an ideal MMP-sensitive probe, which can measure the MMP lost by flow cytometry.
MCF-7 cells were cultured into 12-well plates at a concentration of 1 × 10^6 cells/well of the RPMI-1640 medium. Then, cells were co-cultured with compound 8f (0, 3, 6 and 12 µM) for 24 h. After treatment, cells were stained with 3 µM cationic dye JC-1 at room temperature in the dark for 30 min according to the manufacturer’s instructions (BD Biosciences, San Jose, CA, USA). Finally, cells were harvested and washed with PBS twice, and then the results were recorded by flow cytometry analysis.

[7] = tested on: human colorectal cells (HCT-116); experiment: MTT cytotoxicity assay, HCT-116; assay type: cell-based; settings: HCT-116, MTT, 48 h, means ± SD of three experiments, read-out: IC50 (μM) HCT-116
[8] = tested on: human breast carcinoma cells (MCF-7); experiment: MTT cytotoxicity assay, MCF-7; assay type: cell-based; settings: for IC50: MTT, 48 h, means ± SD of three experiments, read-out: IC50 (μM) MCF-7
[9] = tested on: human lung carcinoma cells (A549); experiment: MTT cytotoxicity assay, A549; assay type: cell-based; settings: A549, MTT, 48 h, means ± SD of three experiments, read-out: IC50 (μM) A549

C=C(C)[C@@H]1CC[C@]2(/C=N/NC(=S)Nc3cccc(Cl)c3)CC[C@]3(C)[C@H](CC[C@@H]4[C@@]5(C)CC[C@H](O)C(C)(C)[C@@H]5CC[C@]43C)[C@@H]12 [Compound 8f, Lup-20(29)-ene-3β-ol-28-N-(3-chlorophenyl)thiosemicarbazide]
expression level of Bax (MCF-7 cells [1]): upregulation; also recorded: increased
expression level of Bcl-2 (MCF-7 cells [1]): downregulation; also recorded: suppressed
expression level of P53 (MCF-7 cells [1]): upregulation; also recorded: increased
expression level of caspase-3 (MCF-7 cells [1]): activation; also recorded: activated
expression level of caspase-9 (MCF-7 cells [1]): activation; also recorded: activated
expression level of cleaved caspase-3 (MCF-7 cells [1]): activation; also recorded: activated
expression level of cleaved caspase-9 (MCF-7 cells [1]): activation; also recorded: activated
expression level of cytochrome c (cyt-c) (MCF-7 cells [1]): upregulation; also recorded: increased
AO/EB staining, cell morphology (MCF-7 cells [2]): some cells showed apoptotic characteristics
generation of ROS level (MCF-7 cells [3]): 75.22%
percentage of apoptosis cells (MCF-7 cells [4]; MCF-7, 3 μM): 13.20%
percentage of apoptosis cells (MCF-7 cells [4]; MCF-7, 12 μM): 48.66%
IC50 [5]: 215 ± 6.28 µM
JC-1 fluorescence intensity (upper quadrant) (MCF-7 cells [6]; MCF-7, 3 μM): 79.00%
JC-1 fluorescence intensity (upper quadrant) (MCF-7 cells [6]; MCF-7, 12 μM): 47.06%
IC50 [7]: 24.7 ± 0.9 µM
IC50 ([8]; Homo sapiens, MCF7, 48 h): < 10 µM
fold more potent than betulin ([8]; MCF-7, ratio of IC50 values): 3.32 fold
IC50 [8]: 5.96 µM and 5.86 µM
IC50 [9]: 10.4 ± 0.74 µM

From paper PMC8587101, “Design and Synthesis of Novel Betulin Derivatives Containing Thio-/Semicarbazone Moieties as Apoptotic Inducers through Mitochindria-Related Pathways” (Molecules, 2021)
